Experimental data: patent publication US20250333699A1, “METHOD FOR PREPARATION OF CYTOTOXIC T LYMPHOCYTES WITH BROAD TUMOUR-SPECIFIC REACTIVITY AND CHARACTERISTICS OF EARLY DIFFERENTIATION CELLS” (priority 2021, published 2025)

System: MAGE antigens
Assay: Expression of MAGE antigens by RT-PCR (Q-PCR) in CD3/CD28-activated lymphocytes
Type: cell-based, human
Conditions: 10 μM for 2 days in the presence of IL-2 (150 IU/ml); FIG. 3
Description: Expression of MAGE antigens was determined as follows. The frozen pellets of cells were thawed, and total RNA was isolated from lymphocytes using the NucleoSpin RNA Plus kit (Macherey-Nagel), and reverse transcribed using SuperScript™ IV VILO™ Master Mix with ezDNase™ Enzyme (Invitrogen) and random hexamers and oligo(dT24) primers. cDNA was amplified in a LightCycler Nano (Roche) using the FastStart Essential DNA Green Master mix (Roche) and previously described primers and conditions (Weinert et al., 2009), except primers for MAGE-A4, provided by RealTimePrimers.com. The data were normalized to GAPDH expression.
The cell suspension was transferred to a 50 ml tube, and the cell concentration was determined. At this stage the culture contains only activated lymphocytes, and upon counting in a Moxi cell counter appear as a single peak of cells with an average size of 10-11 μm. 2×10^7 cells (or all cells) were set for centrifugation. […]
5-Aza-CdR-treated cultures were harvested and centrifuged. […] After this, cells were counted, and 10×10^6 cells were mixed with 10×10^6 thawed lymphocytes, and after centrifugation, resuspended in 20 ml of lymphocyte medium and transferred to a T75 tissue culture flask, side position. […]

SMILES: Nc1ncn([C@H]2C[C@H](O)[C@@H](CO)O2)c(=O)n1 [5-aza-CdR, 5-aza-2′-deoxycytidine]
- expression of selected CT antigens of the MAGE family: Robust and consistent expression
